Patent publication USRE32455E, “A-21978 antibiotics and process for their production” (priority 1985, dated 1987)
Values after ≈ are worked out from the molar mass of the structure shown. Values joined by “and” are separate entries in the source; they are usually repeats but may differ in a detail not shown here. Equal values may be shown once. Read-outs that look alike come from different tables or passages of the source.

Legend:
S. roseosporus = assay: Antibiotic sensitivity, sensitivity discs on seeded agar plates; format: cell-based, Streptomyces roseosporus; conditions: Conc./disc: erythromycin 15 μg, cephalothin 30 μg, lincomycin 2 μg, nystatin 100 units, polymyxin B 300 units, streptomycin 10 μg, tetracycline 30 μg, vancomycin "+μg"; further: key: +: sensitive (zones of inhibition); -: resistant (no zones of inhibition)
Description: Temperature range, NaCl tolerance, pH range, and antibiotic sensitivity were done using ISP #2 agar medium. The range of temperatures were: 25°, 28°, 30°, 34°, 37°, 40°, 45°, 50° and 55° C. […] These were incubated at 30° C. The pH range was measured by adjusting the agar from pH 3.0 to 11.0 at increments of 1.0 pH units, just prior to pouring. Antibiotic sensitivity was determined using sensitivity discs padded onto seeded agar plates.

A21978.6 = assay: as above; format: cell-based, Streptomyces roseosporus; conditions: Conc./disc: erythromycin 15 μg, cephalothin 30 μg, lincomycin 2 μg, nystatin 100 units, polymyxin B 300 units, streptomycin 10 μg, tetracycline 30 μg, vancomycin "+μg"
Description: Temperature range, NaCl tolerance, pH range, and antibiotic sensitivity were done using ISP #2 agar medium. The range of temperatures were: 25°, 28°, 30°, 34°, 37°, 40°, 45°, 50° and 55° C. NaCl tolerance was measured by adding NaCl to the agar to equal: 0, 1, 2, 3, 4, 5, 6, 8, 10 and 12%. These were incubated at 30° C. The pH range was measured by adjusting the agar from pH 3.0 to 11.0 at increments of 1.0 pH units, just prior to pouring. Antibiotic sensitivity was determined using sensitivity discs padded onto seeded agar plates.

Streptococcus pyogenes [1] = assay: MIC, agar dilution (Table XV); format: cell-based
Streptococcus pneumoniae [2] = assay: MIC, agar dilution (Table XV); format: cell-based
Staphylococcus aureus [3] = assay: MIC, agar dilution (Table XV); format: cell-based
From the text: ^1 MIC = minimum inhibitory concentration (μg/ml), agar dilution

[4] = test system: Streptococcus faecalis (Guze); assay: Streptococcus faecalis descending rat pyelonephritis test; format: in vivo, rat (female albino, Cox-Wistar)
Description: In this test, the bacterial culture used was Streptococcus faecalis (Guze). The culture was grown on Trypticase soy agar (BBL), suspended in brain heart infusion broth (BBL), divided into 0.2-ml portions, and frozen in liquid nitrogen. Bacterial suspensions for rat inoculations were prepared daily by seeding a 50-ml flask of trypticase soy broth (BBL) from a frozen ampoule and growing the culture overnight at 37° C. on a shaker. The S. faecalis culture was diluted to 5×10^8 colony-forming units per ml. Test compounds were injected subcutaneously once daily for seven days. All compounds were suspended in 0.125% carboxymethylcellulose.
The experimental rat infections were accomplished by the following procedure. Female, random-bred albino rats (Cox-Wistar) weighing 190 to 210 g were anesthetized by intraperitoneal injection of 12 mg of sodium methohexital supplemented as necessary. The experimental pyelonephritis model was based on the studies of Guze and Beeson in which the left ureter was occluded for 20 min, followed by injection of 0.5 ml of the test organism in the femoral vein. Antimicrobial therapy was commenced 4 to 5 hrs postinfection. Four hours after the last treatment the rats were sacrificed, and the left kidney was removed and homogenized in a Duall grinder containing 9 ml of physiological saline. This represented a 10^-1 dilution of the kidney tissue. Additional 10-fold dilutions in saline were based on the anticipated bacterial cells present in the tissue homogenate. Finally, duplicate agar pour plates were made from several of these dilutions, and the plates were incubated overnight at 37° C. The therapeutic results were expressed in two ways: (i) the percentage of rats with kidney counts of less than 10^2 per g of kidney tissue, referred to as "cures," and (ii) the percentage of rats with at least a 4-log10 reduction in bacterial titer compared with infected control kidneys. Control rats were treated with 0.125% carboxymethylcellulose only. Viable cell counts in kidney tissue from control rats with S. faecalis ranged from 1.2×10^8 to 4.6×10^8 per g of homogenized tissue.

[5] = test system: Streptococcus faecalis (Guze); assay: In vitro susceptibility (MIC) of the S. faecalis Guze strain; format: cell-based
[6] = test system: Peptococcus asaccharolyticus; assay: MIC anaerobic bacteria, standard agar-dilution test; format: cell-based
[7] = test system: Streptococcus pyogenes C203; assay: MIC, standard agar-dilution test; format: cell-based; conditions: Table XI, sodium salt
[8] = test system: Viridans Streptococcus 9943; assay: MIC, standard broth-dilution test; format: cell-based; conditions: Table XII, sodium salt
[9] = test system: Streptococcus pneumoniae Park I; assay: MIC, standard broth-dilution test; format: cell-based; conditions: Table XII, sodium salt
[10] = test system: Peptostreptococcus anaerobius; assay: MIC anaerobic bacteria, standard agar-dilution test; format: cell-based
[11] = test system: Staphylococcus aureus 3055; assay: MIC, standard agar-dilution test; format: cell-based; conditions: Table XI, sodium salt
Staphylococcus aureus [12] = assay: Experimental bacterial infection in mice, ED50; format: in vivo; conditions: two doses, subcutaneous administration
Description: (§1) When two doses of test compound were administered to mice in illustrative infections, the activity observed was measured as an ED50 value [effective dose in mg/kg to protect fifty percent of the test animals: See Warren Wick, et al., J. Bacteriol. 81, 233-235 (1961)].

Streptococcus pneumoniae [13] = assay: Experimental bacterial infection in mice, ED50; format: in vivo; conditions: two doses, subcutaneous administration
Description: as §1

Streptococcus pyogenes [14] = assay: Experimental bacterial infection in mice, ED50; format: in vivo; conditions: two doses
Description: as §1

Clostridium septicum = assay: MIC anaerobic bacteria, standard agar-dilution test; format: cell-based
[15] = test system: Staphylococcus aureus 3055; assay: MIC, standard broth-dilution test; format: cell-based; conditions: Table XII, sodium salt
Toxicity (LD50) in rat = format: in vivo; conditions: IV
Bacteroides fragilis = assay: MIC anaerobic bacteria, standard agar-dilution test; format: cell-based
[16] = test system: Viridans Streptococcus 9943; assay: MIC, standard agar-dilution test; format: cell-based; conditions: Table XI, sodium salt
[17] = test system: pathogenic organisms, particularly gram-positive bacteria; assay: Inhibition of growth of pathogenic organisms; format: cell-based
Toxicity (LD50) in mouse = format: in vivo
[18] = test system: Group D Streptococcus 282; assay: MIC, standard agar-dilution test; format: cell-based; conditions: Table XI, sodium salt
[19] = test system: Fusobacterium necrophorum; assay: MIC anaerobic bacteria, standard agar-dilution test; format: cell-based
Micrococcus luteus = assay: Bioassay, paper-disc agar-diffusion; conditions: Na salts; Table VIII
[20] = test system: Streptococcus pyogenes C203; assay: MIC, standard broth-dilution test; format: cell-based; conditions: Table XII, sodium salt
[21] = test system: Neisseria gonorrhoeae 111076-4; assay: MIC, standard agar-dilution test; format: cell-based; conditions: Table XI, sodium salt
[22] = test system: Peptostreptococcus intermedius; assay: MIC anaerobic bacteria, standard agar-dilution test; format: cell-based
[23] = test system: Group D Streptococcus 282; assay: MIC, standard broth-dilution test; format: cell-based; conditions: Table XII, sodium salt
Eubacterium aerofaciens = assay: MIC anaerobic bacteria, standard agar-dilution test; format: cell-based
[24] = Electrometric titration in 66% aqueous dimethylformamide; format: physicochemical; conditions: 66% DMF; Na salt; factors: two determinations
Fusobacterium symbiosum = assay: MIC anaerobic bacteria, standard agar-dilution test; format: cell-based
Propionibacterium acnes = assay: as above; format: cell-based
Clostridium perfringens = format: cell-based; conditions: anaerobic, agar-dilution
Peptococcus prevoti = assay: MIC anaerobic bacteria, standard agar-dilution test; format: cell-based
Actinomyces isaelii = assay: as above; format: cell-based
[25] = test system: Streptococcus pneumoniae Park I; assay: MIC, standard agar-dilution test; format: cell-based; conditions: Table XI, sodium salt
Wherever Antibiotic sensitivity is given: key: +: sensitive (zones of inhibition); -: resistant (no zones of inhibition).

CN(C)C1C(=O)C(C(N)=O)=C(O)C2(O)C(=O)C3=C(O)c4c(O)cccc4C(C)(O)C3CC12 (stereo not shown) [Tetracycline]
Antibiotic sensitivity (S. roseosporus): +
Antibiotic sensitivity (A21978.6): +

[H]/N=C(/N)N[C@H]1[C@H](O)[C@@H](O)[C@H](O[C@@H]2O[C@@H](C)[C@](O)(C=O)[C@H]2O[C@@H]2O[C@@H](CO)[C@H](O)[C@@H](O)[C@@H]2NC)[C@@H](N/C(N)=N\[H])[C@@H]1O [Streptomycin]
Antibiotic sensitivity (S. roseosporus): +
Antibiotic sensitivity (A21978.6): +

CC[C@H]1OC(=O)[C@H](C)[C@@H](O[C@H]2C[C@@](C)(OC)[C@@H](O)[C@H](C)O2)[C@H](C)[C@@H](O[C@@H]2O[C@H](C)C[C@H](N(C)C)[C@H]2O)[C@](C)(O)C[C@@H](C)C(=O)[C@H](C)[C@@H](O)[C@]1(C)O [Erythromycin, reference compound]
MIC (Streptococcus pyogenes [1]; Streptococcus pyogenes, read-out: MIC): 0.13 µg/mL (≈ 0.177 µM)
Antibiotic sensitivity (S. roseosporus): +
MIC (Streptococcus pneumoniae [2]; Streptococcus pneumoniae, read-out: MIC): 0.5 µg/mL (≈ 0.681 µM)
Antibiotic sensitivity (A21978.6): +
MIC (Staphylococcus aureus [3]; Staphylococcus aureus, read-out: MIC): 0.13 µg/mL (≈ 0.177 µM)

CN[C@H](CC(C)C)C(=O)N[C@H]1C(=O)N[C@@H](CC(N)=O)C(=O)N[C@H]2C(=O)N[C@H]3C(=O)N[C@H](C(=O)N[C@H](C(=O)O)c4cc(O)cc(O)c4-c4cc3ccc4O)[C@H](O)c3ccc(c(Cl)c3)Oc3cc2cc(c3O[C@@H]2O[C@H](CO)[C@@H](O)[C@H](O)[C@H]2O[C@H]2C[C@](C)(N)[C@H](O)[C@H](C)O2)Oc2ccc(cc2Cl)[C@H]1O [Vancomycin, reference compound]
Antibiotic sensitivity (S. roseosporus): +
Percent of Rats Cured ([4]; 12.0 mg/kg × 7, subcutaneous): 33%
Percent of Rats with a 4-Log Titer Decrease ([4]; 12.0 mg/kg × 7, subcutaneous): 55%
Antibiotic sensitivity (A21978.6): +
MIC ([5]; Enterococcus faecalis): 1 µg/mL (≈ 0.69 µM)

Polymyxin B
Antibiotic sensitivity (S. roseosporus): -
Antibiotic sensitivity (A21978.6): +

CCC(C)CCCCCCC(=O)N[C@@H](Cc1c[nH]c2ccccc12)C(=O)NC(CC(N)=O)C(=O)N[C@@H](CC(=O)O)C(=O)N[C@@H]1C(=O)NCC(=O)N[C@@H](CCCN)C(=O)N[C@@H](CC(=O)O)C(=O)N[C@H](C)C(=O)N[C@@H](CC(=O)O)C(=O)NCC(=O)N[C@H](CO)C(=O)N[C@@H]([C@H](C)CC(=O)O)C(=O)N[C@@H](CC(=O)c2ccccc2N)C(=O)O[C@@H]1C (stereo in doubt) [Factor C1]
MIC [6]: 4 µg/mL (≈ 2.45 µM)
MIC [7]: 0.13 µg/mL
MIC [8]: 32.0 µg/mL
MIC [9]: 2.0 µg/mL
MIC [10]: 2 µg/mL (≈ 1.22 µM)
MIC (Streptococcus pyogenes [1]): 0.13 µg/mL (≈ 0.0795 µM)
MIC [11]: 0.5 µg/mL
ED50 (Staphylococcus aureus [12]): 0.22 mg/kg
ED50 (Streptococcus pneumoniae [13]): 0.3 mg/kg
ED50 (Streptococcus pyogenes [14]): 0.064 mg/kg
ED50 (Streptococcus pyogenes [14]; oral administration): 93 mg/kg
MIC (Clostridium septicum): 4 µg/mL (≈ 2.45 µM)
MIC [15]: 1.0 µg/mL
LD50 (Toxicity (LD50) in rat): 479 ± 32 mg/kg
MIC (Bacteroides fragilis): > 128 µg/mL
MIC (Streptococcus pneumoniae [2]): 0.13 µg/mL (≈ 0.0795 µM)
MIC [16]: 0.5 µg/mL
Percent of Rats Cured ([4]; 1.0 mg/kg × 7, subcutaneous): 50%
Percent of Rats with a 4-Log Titer Decrease ([4]; 1.0 mg/kg × 7, subcutaneous): 50%
growth inhibition [17]: inhibit the growth of certain pathogenic organisms, particularly gram-positive bacteria
LD50 (Toxicity (LD50) in mouse; IV): > 250 mg/kg
LD50 (Toxicity (LD50) in mouse; SC): > 365 mg/kg
MIC [18]: 1.0 µg/mL
MIC [19]: 64 µg/mL (≈ 39.2 µM)
Bioassay (Micrococcus luteus) (Micrococcus luteus): 1663 units/mg
MIC (Staphylococcus aureus [3]): 0.5 µg/mL (≈ 0.306 µM)
MIC [20]: 0.5 µg/mL
MIC [21]: 16.0 µg/mL
MIC [22]: 4 µg/mL (≈ 2.45 µM)
MIC [23]: 2.0 µg/mL
MIC (Eubacterium aerofaciens): 16 µg/mL (≈ 9.79 µM)
pKa (first group) [24]: 5.7 and 5.9
MIC (Fusobacterium symbiosum): > 128 µg/mL
MIC (Propionibacterium acnes): 8 µg/mL (≈ 4.89 µM)
MIC (Clostridium perfringens): 16 µg/mL (≈ 9.79 µM)
MIC (Peptococcus prevoti): 2 µg/mL (≈ 1.22 µM)
MIC (Actinomyces isaelii): 4 µg/mL (≈ 2.45 µM)
MIC [25]: 0.13 µg/mL
MIC ([5]; Table XVI): 1.0 µg/mL (≈ 0.612 µM)

C[C@@H]1[C@H](O)[C@@H](C)/C=C/C=C/CC/C=C/C=C/C=C/C=C/C(O[C@H]2O[C@H](C)[C@@H](O)[C@H](N)[C@@H]2O)CC2O[C@](O)(CC(O)C(O)CCC(O)CC(O)CC(O)CC(=O)O[C@H]1C)CC(O)C2C(=O)O (stereo partly shown) [Nystatin]
Antibiotic sensitivity (S. roseosporus): -
Antibiotic sensitivity (A21978.6): -

CC(=O)OCC1=C(C(=O)O)N2C(=O)[C@@H](NC(=O)Cc3cccs3)[C@H]2SC1 [Cephalothin]
Antibiotic sensitivity (S. roseosporus): +
Antibiotic sensitivity (A21978.6): +

CCC[C@@H]1C[C@@H](C(=O)N[C@@H]([C@H]2O[C@H](SC)[C@H](O)[C@@H](O)[C@H]2O)[C@@H](C)O)N(C)C1 [Lincomycin]
Antibiotic sensitivity (S. roseosporus): -
Antibiotic sensitivity (A21978.6): -
